Where two headings read alike, the source gives them in different places.
Columns and labels:
[1] = target: T1, WTLplA / LAP-YFP in HEK cells (Escherichia coli, UniProt P32099); test: Azide ligation yield in cells (native gel shift of LAP-YFP), wild-type LplA; assay type: cell-based, E. coli
T1 construct: expressed in transfected cells; host or cells: HEK cells
Description: (§1) For azide 7 ligation, cells were transfected with 50 ng WTLplA and 1000 ng pcDNA3-LAP-YFP. For azide 9 ligation, cells were transfected with 500 ng W37ILplA and either 1000 ng pcDNA3-LAP-YFP or pcDNA3-LAP(K⋄A)-YFP using Lipofectamine 2000 (Life Technologies). The LplA:LAP plasmid ratios are identical to the conditions used for imaging. 18 hr after transfection, cells were incubated in growth media (MEM supplemented with 10% FBS) containing 200 μM azide 7 or azide 9 for 30 min or 1 hr at 37° C. Excess azide probe was washed out over 1 hr. […] Cells were then centrifuged at 13,000 rpm for 2 min, and the supernatant was analyzed on a 12% polyacrylamide native gel without SDS (5 μL lysate per lane) at constant 200 V. Prior to Coomassie staining, in-gel fluorescence of YFP was visualized on a FUJIFILM FLA-9000 instrument using LD473 laser and Long Pass Blue (LPB) filter. […]
(§2) We also used a gel shift assay as a separate readout of azide ligation yield inside cells. […] The yield of azide ligation to LAP-YFP was determined by shift on a native polyacrylamide gel. The unmodified fusion protein, visualized by YFP fluorescence, runs at an apparent molecular weight of ˜42 kD. […]

Trp37→Ile LplA = Trp37→Ile LplA (Escherichia coli, UniProt P32099, W38I); conditions: 30 min reaction, 500 μM probe; normalized to TCO2/Trp37→Val
Description: LplA protein was purified as previously described2 and stored at −80° C. in 20 mM Tris-HCl, pH 7.5 supplementated with 10% v/v glycerol. Reactions were quenched with 30 mM EDTA (final concentration) and resolved by HPLC (Varian ProStar) on a C-18 column using a linear gradient of 25-60% acetonitrile in H2O (with 0.1% v/v trifluoroacetic acid) over 14 minutes. Species were detected at 210 nm absorbance. Peaks corresponding to LAP and its trans-cyclooctene adducts were confirmed by ESI mass spectrometry. The extent of conversion was calculated from ratios of peak areas, neglecting minor extinction coefficient changes to LAP due to trans-cyclooctene ligation.
The relative abilities of wild-type and mutant ligases to ligate TCO1-3 onto LplA acceptor peptide (LAP) were measured by an HPLC assay after 30 min. reaction time. […] Errors, ±1 s. d.

W37VLplA = W37VLplA (Escherichia coli, UniProt P32099, W38V); conditions: 500 μM probe, 500 μM LAP, 30° C.
Description: After 5, 10, 15 and 20 minutes, an aliquot was drawn from the reaction vial, quenched with 30 mM EDTA (final concentration) and the product quantified by HPLC as in Table 3. The plot of product concentration against time was fitted to a linear line whose slope corresponds to the initial velocity. The value of kcat was calculated from the Michaelis-Menten equation Vmax=(kcat)([Enzyme]) at substrate-saturating conditions. Measurements were performed in triplicate.

W37ILplA [2] = target: T2, W37ILplA (Escherichia coli, UniProt P32099, W38I); test: In vitro screening for Ald and Hyd ligation activity (HPLC); assay type: biochemical, E. coli; conditions: 1 μM W37ILplA, 500 μM probe
T2 construct: His6 (N); made in house; host or cells: E. coli
Description: Ligation reactions were assembled as follows: 1 μM of purified LplA mutant (Uttamapinant, et al., 2010), 150 μM synthetic LAP2 peptide ([…]; SEQ ID NO:4), 5 mM ATP, 500 μM of either Ald or Hyd probe, 5 mM magnesium acetate, and 25 mM Na2HPO4 pH 7.2 in a total volume of 20 μL. Reactions were incubated for 5 to 60 min at 30° C. and then quenched with EDTA to a final concentration of 45 mM. Samples were diluted to a total volume of 80 μL in conjugation buffer (10 mM Na2HPO4, 3.2 mM KH2PO4, 2.7 mM KCl, 140 mM NaCl, pH 5.0) and analyzed on a Varian Prostar HPLC using a reverse-phase C18 Microsorb-MV 100 column (250×4.6 mm). Chromatograms were recorded at 210 nm. For analysis of the aldehyde ligation reaction we used a 10-minute gradient of 30-60% acetonitrile in water with 0.1% trifluoroacetic acid under 1 mL/minute flow rate. For analysis of the hydrazine ligation reaction a gradient of 25-60% over 14 minutes with the same solvents was used. Percent conversions were calculated by dividing the product peak area by the sum of (product+starting material) peak areas. Reactions were performed in triplicate (Ald) or duplicate (Hyd) and the average values are shown. Reactions in FIG. 27C were performed using the conditions above with a 70 minute reaction time for Ald and 120 minute reaction time for Hyd.

W37ILplA [3] = target: T2, W37ILplA; test: Measurement of kcat values for Ald and Hyd ligation; assay type: biochemical, E. coli; conditions: for Vmax / kcat: 1 μM W37ILplA, 600 μM LAP, 500 μM probe
Description: Values of kcat for W37ILplA ligation of the Ald and Hyd probes onto LAP peptide were determined by measuring the initial reaction rates by HPLC. The conditions used were as follows: 1 μM W37ILplA, 600 μM LAP, 500 μM of Ald or Hyd, 2 mM magnesium acetate, and 25 mM sodium phosphate buffer, pH 7.2. Each initial rate was measured in triplicate and the average value reported. The error shown represents ±1 s.d. The equation kcat=Vmax/[E] was used to determine the kcat value.

[4] = target: T3, W37ILplA / LAP-YFP in HEK cells (Escherichia coli, UniProt P32099, W38I); test: Azide ligation yield in cells (native gel shift of LAP-YFP), W37ILplA; assay type: cell-based, E. coli
T3 construct: expressed in transfected cells; host or cells: HEK cells
Description: as §1, §2

W37ILplA [5] = target: T2, W37ILplA; assay type: biochemical, E. coli
Description: Reactions were quenched with 40 mM EDTA (ethylenediaminetetraacetic acid, final concentration). Percent conversion to LAP-azide adduct was determined by HPLC with a C18 reverse phase column, recording absorbance at 210 nm. Elution conditions were 30-60% acetonitrile in water with 0.1% trifluoroacetic acid over 20 minutes at 1.0 mL/min flow rate. The percent conversion was calculated from the ratio of LAP-azide to sum of (unmodified LAP+LAP-azide). Reactions containing 1 μM LplA enzyme, 500 μM azide 9, and 300 μM LAP peptide were incubated at 30° C. for 2 hours. To determine kinetic measurements, reactions containing 100 nM W37ILplA, 25-700 μM azide 9, and 600 μM LAP peptide were incubated at 30° C., before quenching at various time points with EDTA.
Reactions were set up as described in the main text. Aliquots were taken and quenched before product conversion exceeded 5%. To calculate initial rates, we determined the amount of product at each time point by generating a calibration curve using purified LAP and LAP-azide 9 mixed at different ratios. This curve correlated the measured ratio of integrated HPLC peak areas to the actual ratio, i.e. adjusted for any differences in extinction coefficient of LAP vs. LAP-azide 9. Initial rates (Vo) were determined at each azide 9 concentration, by plotting the amount of LAP-azide 9 product against time. The slope of the line gives Vo. Vo values were then plotted against azide 9 concentration in FIG. S3C, and Origin 8.5.1 was used to fit the curve to the Michaelis-Menten equation Vo=Vmax[azide 9]/(Km+[azide 9]). From the Vmax, kcat was calculated using Vmax=kcat[E]total. Measurements of Vo values at each azide 9 concentration were performed in triplicate.

[6] = Tetrazine-dye fluorescence turn-on after Diels-Alder cycloaddition; assay type: physicochemical; conditions: DPBS pH 7.4, >100-fold excess TCO1
Description: Tetrazine-fluorophore conjugates were dissolved in Dulbecco's phosphate buffered saline, pH 7.4 at approximately 100 nM concentration. Solutions with >100-fold excess TCO1 in DMSO or DMSO vehicle alone added were transferred into an opaque, flat-bottom 96-well plate (Greiner Bio One) and their fluorescence emission scanned with a Safire Tecan fluorescence microplate reader. Excitation was fixed at 430 nm for fluorescein, 530 nm for TMR, and 610 nm for Alexa 647. Fold-changes in fluorescence turn-on are reported at respective fluorescence emission maximum wavelengths.

[7] = In vitro second-order Diels-Alder cycloaddition rate constant; conditions: DPBS, pseudo-first-order approximation
Description: Ligation reaction was allowed to proceed at 30° C. for 4 hours to maximize ligation yield. The mixture was then resolved by preparatory HPLC on a C-18 column (25-45% acetonitrile over 30 min. linear gradient, supplemented with 0.1% v/v trifluoroacetic acid), where the product eluted at 19 min. and its identity confirmed by ESI mass spectrometry. The eluate was freeze-dried into a white powder and dissolved in DPBS for subsequent measurements.
To measure second-order rate constant by pseudo-first-order approximation, 100 μL Tz1- or Tz2-fluorescein (100 nM in DPBS) was loaded into an opaque, flat-bottom 96-well plate (Greiner Bio One), then mixed with 100 μL LAP-TCO2 (3.3 μM in DPBS). The fluorescence intensity at 520 nm was immediately recorded at 9-second intervals until the reaction reached completion in approximately 5 minutes. The fluorescence intensity was then converted to [tetrazine-fluorescein], assuming that initial fluorescence corresponded to 50 nM and final fluorescence corresponded to 0 nM tetrazine-fluorescein. […] Measurements were performed in triplicate.

[8] = system: LAP-LDL receptor on HEK cells; test: Live cell surface fluorogenic labeling without dye washout; assay type: cell-based, human; conditions: 50 nM, without rinsing
Description: After 5 rinses with Tyrode's buffer, the chamber was placed on the microscope objective covered with 200 μL of the same buffer. Image acquisition sequence was initiated immediately after 200 μL of 100 nM Tz1-fluorescein in Tyrode's buffer was added to the chamber, and briefly mixed by pipeting. Final concentration of Tz1-fluorescein was therefore 50 nM after mixing. LAP-LDL receptor and a mCherry fluorescent protein transfection marker were transfected at a 1:1 ratio, with altogether 400 ng plasmid per 1 cm^2 culture.
To quantify the imaging signal/noise ratio, 17 cells with obvious surface fluorescence (by eye) at the 180 sec. time point were chosen and separate masks created automatically by the Slidebook software over the fluorescent rims. The averaged pixel intensity was defined as “signal”. To measure noise, 10 cells with no obvious surface fluorescence (by eye) at the 180 sec. time point were chosen, and rectangular masks created manually over the interiors of these cells. The averaged (over all 10 masks) pixel intensity was defined as “noise”.

[9] = 100 nM W37ILplA, 600 μM LAP, 30° C.

T2 sequence (P32099 2-338 W38I): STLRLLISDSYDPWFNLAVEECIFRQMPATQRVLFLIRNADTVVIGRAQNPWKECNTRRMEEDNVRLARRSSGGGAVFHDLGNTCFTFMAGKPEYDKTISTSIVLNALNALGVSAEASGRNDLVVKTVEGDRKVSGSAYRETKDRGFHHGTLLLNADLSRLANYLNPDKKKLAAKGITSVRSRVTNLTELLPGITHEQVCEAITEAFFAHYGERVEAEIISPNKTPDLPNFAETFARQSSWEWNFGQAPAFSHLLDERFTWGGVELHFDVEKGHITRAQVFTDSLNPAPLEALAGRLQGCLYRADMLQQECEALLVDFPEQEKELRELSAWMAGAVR
T1 sequence (P32099 2-338): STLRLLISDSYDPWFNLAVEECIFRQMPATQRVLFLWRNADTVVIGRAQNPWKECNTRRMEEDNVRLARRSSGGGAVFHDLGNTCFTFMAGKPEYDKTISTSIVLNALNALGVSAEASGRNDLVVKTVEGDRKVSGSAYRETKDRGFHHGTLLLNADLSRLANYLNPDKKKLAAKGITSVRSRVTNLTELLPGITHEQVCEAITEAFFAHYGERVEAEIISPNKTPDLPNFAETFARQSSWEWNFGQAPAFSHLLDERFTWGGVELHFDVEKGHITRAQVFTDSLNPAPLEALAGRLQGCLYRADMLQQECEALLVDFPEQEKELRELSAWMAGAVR
T3 sequence (P32099 2-338 W38I): as the sequence (P32099 2-338 W38I) above
Chain of W37VLplA (P32099 2-338 W38V): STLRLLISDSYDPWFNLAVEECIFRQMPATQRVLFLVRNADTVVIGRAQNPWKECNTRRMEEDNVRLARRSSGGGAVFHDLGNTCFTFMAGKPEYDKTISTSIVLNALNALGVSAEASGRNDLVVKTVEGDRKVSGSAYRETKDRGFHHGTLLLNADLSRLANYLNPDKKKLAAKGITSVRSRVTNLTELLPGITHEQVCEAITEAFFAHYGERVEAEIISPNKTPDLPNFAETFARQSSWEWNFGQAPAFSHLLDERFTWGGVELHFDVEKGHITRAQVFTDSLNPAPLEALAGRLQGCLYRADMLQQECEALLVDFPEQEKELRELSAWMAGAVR
Chain of Trp37→Ile LplA (P32099 2-338 W38I): as the sequence (P32099 2-338 W38I) above

**Q.** For “2-Azidomethyl-4-chloropyridine [Azide 7]”, which “ligation yield in cells, repeat of the experiment” value ([1]; 50 ng WTLplA plasmid) is on record?
**A.** Its value is 67%.

**Q.** What about the “ligation yield in cells” value ([1]; 200 μM azide, 1 hour labeling, densitometry) of the same molecule?
**A.** Its value is 73%.

**Q.** For O=C(O)CCCNC(=O)O[C@H]1CC/C=C/CCC1 (stereo in doubt) [TCO1, rel-(1R-4E-pR)-cyclooct-4-ene-1-yl-N-butyric acid carbamate], which “Ligation efficiency (average, normalized product percentage), Trp37→Ile” value (Trp37→Ile LplA) is on record?
**A.** Its value is 0.5 ± 0.4%.

**Q.** Which “Michaelis-Menten kcat of ligation onto LAP” value (W37VLplA) does the source give for O=C(O)CCCCNC(=O)O[C@H]1CC/C=C/CCC1 (stereo in doubt) [TCO2, rel-(1R-4E-pR)-cyclooct-4-ene-1-yl-N-pentanoic acid carbamate] here?
**A.** The value was 0.34 ± 0.02 s⁻¹.

**Q.** With O=Cc1ccc(C(=O)NCCCCC(=O)O)cc1 [Ald] as the molecule, how does the reaction completion (W37ILplA [2]; 150 μM LAP peptide, 5 minutes) read?
**A.** Its reaction completion is 62%.

**Q.** What about the “activity of Ald versus Hyd” value (W37ILplA [3]) of the same molecule?
**A.** The value was “ten-fold greater activity”.

**Q.** And the Vmax (W37ILplA [3])?
**A.** Its Vmax is 19.7 ± 0.7 µM/min.

**Q.** And the kcat (W37ILplA [3])?
**A.** Its kcat is 0.33 ± 0.01 s⁻¹.

**Q.** Which reaction completion (W37ILplA [2]; 60 min) does the source give for NNc1ccc(C(=O)NCCCCC(=O)O)cn1 [Hyd] here?
**A.** The reaction completion was 50%.

**Q.** What about the Vmax (W37ILplA [3]) of the same molecule?
**A.** Its Vmax is 1.25 ± 0.16 µM/min.

**Q.** What about the kcat (W37ILplA [3]) of the same molecule?
**A.** Its kcat is 0.021 ± 0.003 s⁻¹.

**Q.** For [N-]=[N+]=NCCCCCCCCCC(=O)O [azide 9, 10-azidodecanoic acid], which “ligation yield in cells, repeat of the experiment” value ([4]; 500 ng W37ILplA plasmid) is on record?
**A.** Its value is 89%.

**Q.** What about the “ligation yield in cells” value ([4]; 200 μM azide, 30 minutes incubation) of the same molecule?
**A.** The value was “nearly quantitative”.

**Q.** What about the “Km lower than azide 7 ligation catalyzed by wild-type LplA” value (W37ILplA [5]) of the same molecule?
**A.** Its value is 4 fold.

**Q.** And the “improvement in kcat/Km over azide 7 ligation catalyzed by wild-type LplA” value (W37ILplA [5])?
**A.** The value was 2 fold.

**Q.** What about the “kcat reduced compared to azide 7 ligation catalyzed by wild-type LplA” value (W37ILplA [5]) of the same molecule?
**A.** Its value is 1.8 fold.

**Q.** What about the Km (W37ILplA [5]; [9]) of the same molecule?
**A.** The Km was 35 µM.

**Q.** And the kcat (W37ILplA [5]; [9])?
**A.** The kcat was 3.62 min⁻¹.

**Q.** With “Aminobenzyltetrazine carboxyfluorescein [Tz1-fluorescein]” as the molecule, how does the “increase in fluorescein emission upon reaction with excess trans-cyclooctene” value [6] read?
**A.** Its value is 13.4 fold.

**Q.** And the “second order rate constant for reaction with TCO2-ligated LAP” value [7]?
**A.** The value was 5000 ± 700 M⁻¹ s⁻¹.

**Q.** What about the “time to saturation of signal-to-noise ratio” value [8] of the same molecule?
**A.** The value was “approximately 3 minutes”.
